Patent publication US20100144591A1, “BENZIMIDAZOLE DERIVATIVES AND METHODS OF USE THEREOF” (Schering Corporation, priority 2007, published 2010)

Tested on: STZ-induced type 2 diabetic mice
Assay: In vivo effect on glucose levels in diabetic mice
Conditions: 10 mg/kg/day in diet; relative to control mice and mice treated with rosiglitazone (5 mg/kg/day in diet)
Method: The leftmost black solid bar represents diabetic control mice, the second from left black solid bar represents mice treated for one week with rosiglitazone at 5 mg/kg/day; the third from left black solid bar represents mice treated for one week with Compound 174 at 10 mg/kg/day; the fourth from left black solid bar represents mice treated for one week with Compound 174 at 1 mg/kg/day; and the white bar represents nondiabetic control mice. The y-axis indicates non-fasting glucose levels (mg/dl).
Five-week-old male ICR mice were purchased from Taconic Farm (Germantown, N.Y.) and placed on a “western diet” containing 45% (kcal) fat from lard and 0.12% (w/w) cholesterol. After 3 weeks of feeding, the mice were injected once with low dose streptozocin (STZ, ip 75-100 mg/kg) to induce partial insulin deficiency. […] The diabetic mice were then placed in one of groups: (1) a non-treated diabetic control group, (2) a group treated with rosiglitazone (5 mg/kg/day in diet); (3) a group treated with Compound 174(10/mg/kg in diet) for four weeks; and (4) a group treated with Compound 174 (1/mg/kg in diet) for four weeks.

## Nc1cc(CN2CCC(C(=O)N3CCC(n4c(-c5ccc(F)c(F)c5)nc5cccnc54)CC3)CC2)ccn1 [Compound 174]
  HbA1C levels: significantly reduced
  non-fasting glucose levels: significantly reduced
